Values of other authors, collected in patent US20050267197A1 (priority 2004, published 2005).

Experiments:
[1] = in vivo
[2] = in vivo; remark: listed apart in the source

SMILES: COCc1c(C(C)C)nc(C(C)C)c(/C=C/[C@@H](O)C[C@@H](O)CC(=O)O)c1-c1ccc(F)cc1 [Baycol®, cervastatin]
- deaths linked to the drug (at recommended initial dose (0.4 mg/day) as well as highest dose (0.8 mg/day)): 31 deaths

SMILES: CC(C)c1nc(N(C)S(C)(=O)=O)nc(-c2ccc(F)cc2)c1/C=C/[C@@H](O)C[C@@H](O)CC(=O)O [Crestor®, rosuvastatin]
- cases of serious side effects cited (cited by consumer advocacy group, March 2004): 16 cases

SMILES: O=C(O)c1cccnc1 [Niacin]
- patients affected by flushing (redness) of the face and neck [1]: more than three quarters of patients
- patients discontinuing treatment because of adverse effects [1]: more than 40%
- increase of blood levels of HDL cholesterol [2]: up to 35%
- reduction of total cholesterol [2]: up to 15%
- reduction of triglyceride levels [2]: up to 30%
